Test results taken from patent publication US4650874A, “N-(aralkoxybenzyl)-4(benzhydryl) piperidines” (G. D. Searle & Co., priority 1984, dated 1987).
Structures can show the parent of a compound that is named as a salt.

What was measured:
[1] = tested on: spontaneously hypertensive rats; experiment: Anti-hypertensive activity in the unanesthetized spontaneously hypertensive rat (SHR) assay; type: in vivo; conditions: for minimal effective dose: Rattus norvegicus, read-out: Threshold Dose mg/kg intravenous; for minimal effective dose / Threshold Dose mg/kg intravenous: intravenous; for Oral Activity (Blood Pressure Lowering): intragastrically 50 mg/kg
Protocol: Male, unanesthetized spontaneously hypertensive rats, 11 to 16 weeks old were used in this test procedure. The compounds to be tested were administered intragastrically at a dose of 50 mg/kg or intraarterially/intravenously at a dose of 10 mg/kg.
Initial mean arterial blood pressure was measured directly via a previously implanted arterial catheter immediately before administration of the test compound. Blood pressure readings were made at 1, 2, 3, and 4 hours following administration of the test compound. […] Statistical comparisons were made using the paired Student's T test with two sided probability calculations.

[2] = target: T1, vascular smooth muscle (isolated thoracic aorta segments) (Rattus norvegicus, UniProt P22002); experiment: Calcium antagonism in vascular smooth muscle (isolated thoracic aorta segments from male spontaneously hypertensive rats); type: cell-based; conditions: for activity as vascular calcium antagonist (in words): isolated SHR aorta; for Kb: read-out: pA2 (Ca++ Antagonism) (converted)
T1 construct: The excised aorta segment was mounted in a tissue bath containing modified Krebs solution; from tissue; host or cells: thoracic aorta segments of male spontaneously hypertensive rats
Protocol: Isolated thoracic aorta segments from the male spontaneously hypertensive rat were utilized in this test procedure.
The excised aorta segment was mounted in a tissue bath containing modified Krebs solution. After depolarization of the tissue with potassium (100 mM), calcium, in cumulative concentrations of 1×10^-3 M, 3.2×10^-3 M, and 1×10^-2 M was injected into the bath to produce vascular smooth muscle contraction. The developed tension (in grams) is measured and control dose-response values obtained. After one hour of incubation with a test compound at 1×10^-6 M concentration, the same doses of calcium ions were repeated. The log dose-response curves of the control and after treatment were analyzed by linear regression. The pA2 value was calculated as a measure of calcium antagonism of the test compound. See Van Rossum, J. M., Arch. Int. Pharmacodyn, 143, 299-330, 1963.
Calcium ions play an essential role in induction and maintenance of vascular smooth muscle contractility. In potassium depolarized vascular smooth muscle, calcium antagonists may block the entry of calcium ions into the cell or act by other mechanisms to inhibit the contractions induced by calcium ions. The inhibition of calcium ion - induced contraction of vascular smooth muscle is used to test compounds for vascular calcium antagonism. Cardiovascular diseases such as arrythmias, angina-pectoris, hypertension, and peripheral vascular disease may be casually related to abnormalities in cellular handling of calcium ions.

[3] = 1×10^-6 M, one hour incubation, K+ (100 mM) depolarized SHR aorta

T1 sequence (P22002 whole entry): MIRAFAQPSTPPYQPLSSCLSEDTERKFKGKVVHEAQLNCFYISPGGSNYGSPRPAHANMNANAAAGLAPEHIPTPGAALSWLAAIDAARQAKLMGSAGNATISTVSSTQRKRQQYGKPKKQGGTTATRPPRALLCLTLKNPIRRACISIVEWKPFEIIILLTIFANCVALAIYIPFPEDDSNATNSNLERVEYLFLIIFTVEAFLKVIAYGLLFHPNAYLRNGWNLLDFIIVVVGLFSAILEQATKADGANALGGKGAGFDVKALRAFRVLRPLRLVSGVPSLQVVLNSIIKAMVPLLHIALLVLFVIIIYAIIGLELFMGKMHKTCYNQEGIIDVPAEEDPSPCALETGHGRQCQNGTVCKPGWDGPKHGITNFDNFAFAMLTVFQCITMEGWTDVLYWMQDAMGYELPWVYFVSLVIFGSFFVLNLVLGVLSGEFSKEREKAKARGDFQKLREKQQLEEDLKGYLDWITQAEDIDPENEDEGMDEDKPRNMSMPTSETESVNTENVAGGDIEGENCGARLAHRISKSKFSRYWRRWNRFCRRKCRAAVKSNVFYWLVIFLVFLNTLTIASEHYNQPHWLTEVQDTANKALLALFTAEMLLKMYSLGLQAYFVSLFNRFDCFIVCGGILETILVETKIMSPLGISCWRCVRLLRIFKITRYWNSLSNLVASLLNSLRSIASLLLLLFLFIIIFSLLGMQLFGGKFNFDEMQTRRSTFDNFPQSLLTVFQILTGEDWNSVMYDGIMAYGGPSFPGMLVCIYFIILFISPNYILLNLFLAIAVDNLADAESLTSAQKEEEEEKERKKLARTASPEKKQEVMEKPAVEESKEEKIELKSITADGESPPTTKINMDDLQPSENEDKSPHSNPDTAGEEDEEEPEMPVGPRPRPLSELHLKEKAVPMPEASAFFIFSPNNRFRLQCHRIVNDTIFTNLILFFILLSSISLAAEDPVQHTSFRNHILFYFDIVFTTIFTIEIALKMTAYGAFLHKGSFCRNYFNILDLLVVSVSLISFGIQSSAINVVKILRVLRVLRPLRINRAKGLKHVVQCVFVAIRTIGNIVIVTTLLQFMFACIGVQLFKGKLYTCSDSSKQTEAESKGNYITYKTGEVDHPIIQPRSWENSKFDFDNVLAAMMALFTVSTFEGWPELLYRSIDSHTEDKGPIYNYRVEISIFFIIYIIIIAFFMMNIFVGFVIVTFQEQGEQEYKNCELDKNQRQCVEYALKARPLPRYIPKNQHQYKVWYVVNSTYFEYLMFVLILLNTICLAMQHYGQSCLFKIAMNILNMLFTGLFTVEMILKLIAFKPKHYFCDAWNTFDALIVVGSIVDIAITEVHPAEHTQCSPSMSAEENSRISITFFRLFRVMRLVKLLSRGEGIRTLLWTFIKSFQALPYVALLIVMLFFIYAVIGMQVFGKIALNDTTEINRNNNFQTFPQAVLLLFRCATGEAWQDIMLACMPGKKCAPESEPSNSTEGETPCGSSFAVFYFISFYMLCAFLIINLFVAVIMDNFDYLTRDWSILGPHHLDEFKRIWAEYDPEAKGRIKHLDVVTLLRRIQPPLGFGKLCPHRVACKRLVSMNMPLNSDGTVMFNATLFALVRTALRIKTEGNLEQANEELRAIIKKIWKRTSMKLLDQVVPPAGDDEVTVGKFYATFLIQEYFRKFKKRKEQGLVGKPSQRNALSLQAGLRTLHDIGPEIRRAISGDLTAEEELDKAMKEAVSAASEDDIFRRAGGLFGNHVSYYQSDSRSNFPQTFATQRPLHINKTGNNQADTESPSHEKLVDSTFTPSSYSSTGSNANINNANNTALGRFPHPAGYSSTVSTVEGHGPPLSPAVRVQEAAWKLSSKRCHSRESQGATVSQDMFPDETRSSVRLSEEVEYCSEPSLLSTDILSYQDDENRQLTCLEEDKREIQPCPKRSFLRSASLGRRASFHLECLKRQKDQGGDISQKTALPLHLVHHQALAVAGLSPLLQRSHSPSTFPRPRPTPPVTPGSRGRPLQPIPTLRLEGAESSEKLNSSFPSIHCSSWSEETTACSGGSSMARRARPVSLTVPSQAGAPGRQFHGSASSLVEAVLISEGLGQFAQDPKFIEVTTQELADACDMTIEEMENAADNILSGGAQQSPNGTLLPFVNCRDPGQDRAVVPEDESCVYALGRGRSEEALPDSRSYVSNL

| SMILES | SHR mm Hg @ 10 mg/kg intravenous (blood pressure lowering) ([1]; SHR) | minimal effective dose ([1]; SHR) | Kb [2, 3] | further results |
| --- | --- | --- | --- | --- |
| C[C@](N)(Cc1ccc(O)c(O)c1)C(=O)O [Aldomet, reference compound] |  |  |  | activity in the hypertensive rat assay (in words) ([1]; SHR): active |
| NNc1nncc2ccccc12 [Apresoline, reference compound] |  |  |  | activity in the hypertensive rat assay (in words) ([1]; rat, in vivo): active |
| C[C@H](CS)C(=O)N1CCC[C@H]1C(=O)O [Captopril, reference compound] |  |  |  | activity in the hypertensive rat assay (in words) ([1]; SHR): active |
| Clc1cccc(Cl)c1N=C1NCCN1 [Clonidine, reference compound] |  |  |  | activity in the hypertensive rat assay (in words) ([1]; rat, in vivo): active |
| COc1ccc([C@@H]2Sc3ccccc3N(CCN(C)C)C(=O)[C@@H]2OC(C)=O)cc1 [Diltiazem, reference compound] |  |  |  | activity as vascular calcium antagonist (in words) [2]: active |
| CCOC(=O)c1cc(OCc2ccccc2)ccc1CN1CCC(C(c2ccccc2)c2ccccc2)CC1 [Example 2, ethyl 2-[[4-(diphenylmethyl)-1-piperidinyl]methyl]-5-(phenylmethoxy)benzoate] | inactive |  |  | pA2 (Ca++ Antagonism) [2, 3]: inactive |
| COc1ccc(CN2CCC(C(c3ccccc3)c3ccccc3)CC2)cc1OCc1ccccc1 [Example 3, 4-(diphenylmethyl)-1-[[[4-methoxy-3-(phenylmethoxy)phenyl]methyl]piperidine, ethanedioate] | 79 mm Hg | 0.3 mg/kg | 25.7 nM |  |
| CC(C)(C)NC(=O)c1cc(OCc2ccccc2)ccc1CN1CCC(C(c2ccccc2)c2ccccc2)CC1 [Example 4, 2-[[4-(diphenylmethyl)-1-piperidinyl]methyl]-5-(phenylmethoxy)-N-(1,1-dimethylethyl) benzamide] | 29 mm Hg | 0.3 mg/kg | 186 nM |  |
| Oc1ccc(CN2CCC(C(c3ccccc3)c3ccccc3)CC2)cc1 [Example 5, 4-[[4-(diphenylmethyl)-1-piperidinyl]methyl]phenol] |  |  |  | Oral Activity (Blood Pressure Lowering) ([1]; SHR): inactive |
| c1ccc(COc2ccc(CN3CCC(C(c4ccccc4)c4ccccc4)CC3)cc2)cc1 [Example 6, 4-(diphenylmethyl)-1-[[4-(phenylmethoxy)phenyl]methyl] piperidine, hydrochloride] | 88 mm Hg | 0.3 mg/kg | 10.7 nM |  |
| Cc1ccc(COc2ccc(CN3CCC(C(c4ccccc4)c4ccccc4)CC3)cc2)cc1 [Example 7, 4-(diphenylmethyl)-1-[[4-[(4-methylphenyl)methoxy]phenyl]methyl] piperidine, 2-butendioate] | 56 mm Hg | 1 mg/kg |  |  |
| COc1ccc(COc2ccc(CN3CCC(C(c4ccc(F)cc4)c4ccc(F)cc4)CC3)cc2)cc1 [Example 8] | 50 mm Hg | 1 mg/kg | 18.2 nM |  |
| COc1ccc(COc2ccc(CN3CCC(C(c4ccccc4)c4ccccc4)CC3)cc2)cc1 [Example 9, 4-(diphenylmethyl)-1-[[4-[(4-methoxyphenyl)methoxy]phenyl]methyl]piperidine] |  |  | 41.7 nM |  |
| Fc1ccc(C(c2ccc(F)cc2)C2CCN(Cc3ccc(OCc4ccccc4)cc3)CC2)cc1 [Example 10, [bis(4-fluorophenyl)methyl]-1-[[4-(phenylmethoxy)phenyl]methyl]piperidine] | 67 mm Hg | 0.3 mg/kg | 26.9 nM |  |
| Fc1ccc(C(c2ccc(F)cc2)C2CCN(Cc3ccc(OCc4ccc(Cl)cc4)cc3)CC2)cc1 [Example 11, 4-[bis(4-fluorophenyl)methyl]-1-[[4-[(4-chlorophenyl)methoxy]phenyl]methyl]piperidine, hydrobromide] | 107 mm Hg | 0.3 mg/kg | 8.71 nM |  |
| Fc1ccc(C(c2ccc(F)cc2)C2CCN(Cc3ccc(OCc4ccc(Cl)cc4Cl)cc3)CC2)cc1 [Example 12, 4-[bis(4-fluorophenyl)methyl]-1-[[4-[(2,4-dichlorophenyl)methoxy]phenyl]methyl] piperidine, hydrochloride] | 79 mm Hg | 0.1 mg/kg | 30.2 nM |  |
| Fc1cccc(C(c2cccc(F)c2)C2CCN(Cc3ccc(OCc4ccccc4)cc3)CC2)c1 [Example 13] | inactive |  | 12.9 nM | Threshold Dose mg/kg intravenous ([1]; SHR): inactive |
| Clc1ccc(COc2ccc(CN3CCC(C(c4ccccc4)c4ccccc4)CC3)cc2)cc1 [Example 14, 1-[[4-[(4-chlorophenyl)methoxy]phenyl]methyl]-4-(diphenylmethyl)piperidine] |  |  | 38.9 nM | Oral Activity (Blood Pressure Lowering) ([1]; SHR): active |
| Clc1ccc(COc2ccc(CN3CCC(C(c4ccccc4)c4ccccc4)CC3)cc2)cc1 [Example 15, 1-[[4-[(4-chlorophenyl)methoxy]phenyl]methyl]-4-(diphenylmethyl)piperidine, 2-butenedioate] | 89 mm Hg | 1 mg/kg |  |  |
| Clc1ccc(COc2ccc(CN3CCC(C(c4ccccc4)c4ccccc4)CC3)cc2)cc1Cl [Example 16, 1-[[4-[(3,4-dichlorophenyl)methoxy]phenyl]methyl]-4-(diphenylmethyl)piperidine, 2-butenedioate] | 81 mm Hg | 0.3 mg/kg |  |  |
| Clc1ccc(COc2ccc(CN3CCC(C(c4ccccc4)c4ccccc4)CC3)cc2)c(Cl)c1 [Example 17, 1-[[4-[(2,4-dichlorophenyl)methoxy]phenyl]methyl]-4-(diphenylmethyl)piperidine] | inactive |  | 40.7 nM | Threshold Dose mg/kg intravenous ([1]; SHR): inactive |
| Fc1ccccc1COc1ccc(CN2CCC(C(c3ccccc3)c3ccccc3)CC2)cc1 [Example 18, 4-(diphenylmethyl)-1-[[4-[(2-fluorophenyl)methoxy]phenyl]methyl]piperidine] | 65 mm Hg | 0.3 mg/kg | 70.8 nM | Oral Activity (Blood Pressure Lowering) ([1]; SHR): active |
| COc1ccc(CN2CCC(C(c3ccccc3)c3ccccc3)CC2)cc1OCc1ccc(Cl)cc1 [Example 19] | 75 mm Hg | 1 mg/kg | 457 nM |  |
| c1ccc(C(c2ccccc2)C2CCN(Cc3ccc(OCC4CCCCC4)cc3)CC2)cc1 [Example 20] | inactive |  | 44.7 nM |  |
| COc1cc(CN2CCC(C(c3ccccc3)c3ccccc3)CC2)ccc1OCc1ccccc1 [Example 21] | 18 mm Hg | 0.1 mg/kg |  | Oral Activity (Blood Pressure Lowering) ([1]; SHR): active |
| COC(=O)C1=C(C)NC(C)=C(C(=O)OC)C1c1ccccc1[N+](=O)[O-] [Nifedipine, reference compound] |  |  |  | activity as vascular calcium antagonist (in words) [2]: active |
| COc1ccc(CCN(C)CCCC(C#N)(c2ccc(OC)c(OC)c2)C(C)C)cc1OC (stereo not shown) [Verapamil, reference compound] |  |  |  | activity as vascular calcium antagonist (in words) [2]: active |
